How the values were obtained:
[1] = test system: histone acetylation in mouse brain; assay: Histone acetylation in brain tissue (central pharmacodynamics); details: 150 mg/kg po bid, five consecutive days; 1 h post last dose
Description: Cortical tissue from the mice was assessed using specific antibodies for increases in acetylation of specific lysine residues on Histones H3 (H3K4, H3K9, H3K14) and H4 (H4K5) as well as global acetylation of H3 (Ac-H3) and H4 (Ac-H4). The acetylation level was normalized to total H3 and H4 expression level. The samples from the rest of the brain were analyzed for terminal 4b levels at the time of sacrifice. […] Mouse brains were harvested, dissected, immediately frozen in liquid nitrogen and stored at −80°C. Mouse brain tissue was homogenized (polytron homogenizer, 20 s) in 2 volumes of histone extraction buffer (1×PBS, 5% Triton X-100 (v/v), 3 mM DTT, 1 mM orthovanadate, 5 mM NaF, 1 mM PMSF, 5 mM Na Butyrate, Roche complete protease inhibitor tablet) and centrifuged at 900 g for 8 min at 4°C. The resulting pellet was washed twice in 1 ml of histone extraction buffer before being re-suspended in 2–3 volumes of 0.2 M HCl. Samples were then vortexed briefly and left to shake vigorously for 3 h at 4°C using a VXR Vibrax 1.5 ml polypropylene tube shaker (IKA). After shaking, samples were centrifuged at 900 g for 8 min at 4°C and the resulting supernatant was retained and neutralized with 0.2 volumes of 1 M NaOH.

[2] = test system: HDACs; assay: Biochemical HDAC assays (whole panel); design: species or system human; details: up to 50 µM
Text: To assess the biochemical and cellular potency of 4b and its conversion products/metabolites, we utilized the two-step fluorogenic assay which measures the HDAC-mediated catalytic conversion of synthetic acetylated lysine substrates. In brief, on deacetylation of the substrates by HDAC activity, a protease site is unmasked which allows subsequent trypsin-mediated cleavage and release of the highly flourescent AMC molecules in a subsequent step of the assay. The substrates used were Lys_Ac_AMC (Bachem I-1875) for HDAC3 and (Ac)Arg-Gly-Lys(Ac) (Bachem I-1925) for HDAC1 and HDAC2. […] However, the relatively labile and sterically more demanding trifluoracetyl group is readily hydrolyzed by the catalytically less avid Class IIa enzymes, allowing measurement of Class IIa activity using the 2-step fluorogenic assay. […]
For evaluation of the class selectivity of the compounds, we assessed inhibition against purified recombinant human full length HDAC1 (cat# 50051), HDAC2 (cat# 50052), HDAC3-NcoR2 (cat# 50003) and HDAC8 (cat# 50008): as representative of Class I activity; catalytic domain HDAC4(αα 648–1057), HDAC5 (αα 657–1123; cat # 50005), HDAC7 (αα 518-end; cat # 50007) and HDAC9 (αα 604–1066; cat # 50009) activity: representing all Class IIa activity; and full length HDAC6 (cat#50006): representing Class IIb activity. […]

Compound	histone acetylation in cortical tissue (H3K4, H3K9, H3K14, H4K5, Ac-H3, Ac-H4) [1]	activity in the biochemical HDAC assays [2]
Nc1ccccc1NC(=O)CCCCCC(=O)Nc1ccccc1 [Compound 4b]	failed to enhance histone acetylation	
O=C(CCCCCc1nc2ccccc2[nH]1)Nc1ccccc1 [Compound C1, 6-(1-H-benzo[d]imidazol-2-yl)-N-phenylhexanamide]		no activity

Reference: article PMC3433414, “Oral Administration of the Pimelic Diphenylamide HDAC Inhibitor HDACi 4b Is Unsuitable for Chronic Inhibition of HDAC Activity in the CNS In Vivo” (PLoS ONE, 2012)
